Test system: IGROV1 complex spheroids (HUVEC, MSC), viability % test/control
Experiment: Anticancer human tumor IGROV1 cell line growth inhibition [GQUAD];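 note: spheroids exposed to compounds for 7 days before readout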;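 for viability, T/C: 100% = DMSO vehicle control viability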
Details: for IC50: curve of first compound; for viability, T/C: stronger effect = lower value
Summary of the method: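 Tumor cells were grown as complex spheroids with HUVEC endothelial cells and mesenchymal stem cells as stroma. G-quadruplex stabilizers were combined with targeted agents over half-log dilutions from near the clinical Cmax, or from 10 microM.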

[1] = second compound 0.0316 µM, first compound 0.0316 µM
[2] = second compound 0.0316 µM, first compound 0.316 µM
[3] = second compound 0.1 µM, first compound 0.0316 µM
[4] = second compound 0.1 µM, first compound 0.316 µM
[5] = second compound 0.316 µM, first compound 0.0316 µM
[6] = second compound 0.316 µM, first compound 0.316 µM
[7] = second compound 1 µM, first compound 0.0316 µM
[8] = second compound 1 µM, first compound 0.316 µM
[9] = second compound 3.16 µM, first compound 0.0316 µM
[10] = second compound 3.16 µM, first compound 0.316 µM
[11] = second compound 10 µM, first compound 0.0316 µM
[12] = second compound 10 µM, first compound 0.316 µM

`CC(C)(O)C1CCC(Nc2ccc3ncc(-c4cccc(C(F)(F)F)c4)n3n2)CC1` (centres undefined) + Cc1[nH]c2ccc(F)cc2c1-c1nc2c3cccnc3c3ncccc3c2[nH]1 gave an IC50 (second compound 0.0316 µM) of 2010 nM, an IC50 (second compound 0.1 µM) of 1820 nM and an IC50 (second compound 0.316 µM) of 623 nM. It also gave an IC50 (second compound 1 µM) of less than 31.6 nM, an IC50 (second compound 3.16 µM) of less than 31.6 nM and an IC50 (second compound 10 µM) of less than 31.6 nM. The viability, T/C [1] was 93.8%, the viability, T/C (second compound 0.0316 µM, first compound 0.1 µM) was 83.1% and the viability, T/C [2] was 94.3%. The viability, T/C (second compound 0.0316 µM, first compound 1 µM) was 82.7%, the viability, T/C (second compound 0.0316 µM, first compound 3.16 µM) was 27.4% and the viability, T/C (second compound 0.0316 µM, first compound 10 µM) was 30%. The viability, T/C [3] was 99.3%, the viability, T/C (second compound 0.1 µM, first compound 0.1 µM) was 83.3% and the viability, T/C [4] was 102%. The viability, T/C (second compound 0.1 µM, first compound 1 µM) was 68.5%, the viability, T/C (second compound 0.1 µM, first compound 3.16 µM) was 32.9% and the viability, T/C (second compound 0.1 µM, first compound 10 µM) was 33.4%. For the same compound, the viability, T/C [5] was 69.6%, the viability, T/C (second compound 0.316 µM, first compound 0.1 µM) was 70.6% and the viability, T/C [6] was 65.3%. For the same compound, the viability, T/C (second compound 0.316 µM, first compound 1 µM) was 38.8%, the viability, T/C (second compound 0.316 µM, first compound 3.16 µM) was 6.69% and the viability, T/C (second compound 0.316 µM, first compound 10 µM) was 5.42%. The viability, T/C [7] was 3.27%, the viability, T/C (second compound 1 µM, first compound 0.1 µM) was 3.08% and the viability, T/C [8] was 4.14%. The viability, T/C (second compound 1 µM, first compound 1 µM) was 3.08%, the viability, T/C (second compound 1 µM, first compound 3.16 µM) was 3.37% and the viability, T/C (second compound 1 µM, first compound 10 µM) was 2.43%. It also gave a viability, T/C [9] of 2.86%, a viability, T/C (second compound 3.16 µM, first compound 0.1 µM) of 3.13% and a viability, T/C [10] of 3.35%. The viability, T/C (second compound 3.16 µM, first compound 1 µM) was 3.26%, the viability, T/C (second compound 3.16 µM, first compound 3.16 µM) was 2.39% and the viability, T/C (second compound 3.16 µM, first compound 10 µM) was 2.06%. For the same compound, the viability, T/C [11] was 3.41%, the viability, T/C (second compound 10 µM, first compound 0.1 µM) was 3.18% and the viability, T/C [12] was 3.27%. It also gave a viability, T/C (second compound 10 µM, first compound 1 µM) of 2.99%, a viability, T/C (second compound 10 µM, first compound 3.16 µM) of 2.37% and a viability, T/C (second compound 10 µM, first compound 10 µM) of 2.38%.

`CCc1c2c(nc3ccc(O)cc13)-c1cc3c(c(=O)n1C2)COC(=O)[C@]3(O)CC` + CN(C)c1ccc(Nc2c3ccc(NC(=O)CCN4CCCC4)cc3nc3cc(NC(=O)CCN4CCCC4)ccc23)cc1 gave an IC50 (second compound 0.0316 µM) of 1.22 nM, an IC50 (second compound 0.1 µM) of 1.05 nM and an IC50 (second compound 0.316 µM) of less than 0.999 nM. The IC50 (second compound 1 µM) was less than 0.999 nM, the IC50 (second compound 3.16 µM) was less than 0.999 nM and the IC50 (second compound 10 µM) was less than 0.999 nM. The viability, T/C (second compound 0.0316 µM, first compound 0.000999 µM) was 57.5%, the viability, T/C (second compound 0.0316 µM, first compound 0.00316 µM) was 15.8% and the viability, T/C (second compound 0.0316 µM, first compound 0.00999 µM) was 11.4%. It also gave a viability, T/C [1] of 7.01%, a viability, T/C (second compound 0.0316 µM, first compound 0.0999 µM) of 5.52% and a viability, T/C [2] of 1.54%. It also gave a viability, T/C (second compound 0.1 µM, first compound 0.000999 µM) of 51.9%, a viability, T/C (second compound 0.1 µM, first compound 0.00316 µM) of 15.3% and a viability, T/C (second compound 0.1 µM, first compound 0.00999 µM) of 11.3%. For the same compound, the viability, T/C [3] was 8.79%, the viability, T/C (second compound 0.1 µM, first compound 0.0999 µM) was 5.38% and the viability, T/C [4] was 1.47%. The viability, T/C (second compound 0.316 µM, first compound 0.000999 µM) was 49.7%, the viability, T/C (second compound 0.316 µM, first compound 0.00316 µM) was 16.7% and the viability, T/C (second compound 0.316 µM, first compound 0.00999 µM) was 9.1%. The viability, T/C [5] was 8.69%, the viability, T/C (second compound 0.316 µM, first compound 0.0999 µM) was 3.87% and the viability, T/C [6] was 1.5%. For the same compound, the viability, T/C (second compound 1 µM, first compound 0.000999 µM) was 49.5%, the viability, T/C (second compound 1 µM, first compound 0.00316 µM) was 13.7% and the viability, T/C (second compound 1 µM, first compound 0.00999 µM) was 9.93%. For the same compound, the viability, T/C [7] was 8.16%, the viability, T/C (second compound 1 µM, first compound 0.0999 µM) was 5.08% and the viability, T/C [8] was 2.04%. The viability, T/C (second compound 3.16 µM, first compound 0.000999 µM) was 42.3%, the viability, T/C (second compound 3.16 µM, first compound 0.00316 µM) was 11.4% and the viability, T/C (second compound 3.16 µM, first compound 0.00999 µM) was 8.41%. For the same compound, the viability, T/C [9] was 8.25%, the viability, T/C (second compound 3.16 µM, first compound 0.0999 µM) was 5.52% and the viability, T/C [10] was 1.58%. It also gave a viability, T/C (second compound 10 µM, first compound 0.000999 µM) of 20.3%, a viability, T/C (second compound 10 µM, first compound 0.00316 µM) of 10.7% and a viability, T/C (second compound 10 µM, first compound 0.00999 µM) of 9.09%. It also gave a viability, T/C [11] of 5.5%, a viability, T/C (second compound 10 µM, first compound 0.0999 µM) of 2.71% and a viability, T/C [12] of 2.02%.
